In patent publication US8163766B2, “Beta-secretase modulators and methods of use” (Amgen Inc., priority 2005, dated 2012):

Test system: Aβ 40 in conditioned media of cells stably expressing Amyloid Precursor Protein (APP)
Assay: BACE Cell-Based Assay (Aβ40 in conditioned medium, sandwich ELISA)
Settings: 24 hours of incubation with the test compounds, Aβ 40 by sandwich ELISA, read-out: IC50 values in the cell-based assay (inhibition of Aβ 40)
Experimental: The cell-based assay measures inhibition or reduction of Aβ40 in conditioned medium of test compound treated cells, which express amyloid precursor protein.
Cells stably expressing Amyloid Precursor Protein (APP) were plated at a density of 40K cells/well in 96 well plates (Costar). The cells were cultivated for 24 h at 37° C. and 5% CO2 in DMEM supplemented with 10% FBS. The test compounds were then added to cells in 10-point dose response concentrations with the starting concentration being either 100 μM or 10 μM. The compounds were diluted from stock solutions in DMSO and the final DMSO concentration of the test compounds on cells was 0.1%. After 24 hours of incubation with the test compounds the supernatant conditioned media was collected and the Aβ 40 levels were determined using a sandwich ELISA. The IC50 of the compound was calculated from the percent of control or percent inhibition of Aβ 40 as a function of the concentration of the test compound.
The sandwich ELISA to detect Aβ 40 was performed in 96 well microtiter plates, which were pre-treated with goat anti-rabbit IgG (Pierce). The capture and detecting antibody pair that were used to detect Aβ 40 from cell supernatants were affinity purified pAb40 (Biosource) and biotinylated 6E10 (Signet Labs Inc.), respectively. The optimal concentration for the pAb40 antibody was 3 μg/ml in Superblock/TBS (Pierce) that was supplemented with 0.05% Tween 20 (Sigma). Optimal concentration for the detection antibody 6E10-biotinylated was […] in Superblock/TBS (Pierce) that had been supplemented with 2% normal goat serum and 2% normal mouse serum.
Cellular supernatants were incubated with the capture antibody for 3 h at 4° C., followed by 3 wash steps in TBS-tween (0.05%). The detecting antibody incubation was for 2 h at 4° C., again followed by the wash steps as described previously. The final readout of the ELISA is Time-Resolved Fluorescence (counts per minute) using Delfia reagents Streptavidin-Europium and Enhancement solutions (Perkin Elmer) and the Victor 2 multilabel counter (Perkin Elmer).

| Structure (SMILES) | IC50 [µM] |
| --- | --- |
| CCc1ccc2c(c1)C(NC[C@@H](O)[C@H](Cc1ccccc1)NC(=O)c1cc(-c3cnccn3)c(=O)n(C3CCCC3)c1)CC1(CCCC1)O2 (stereo partly drawn) [Example 22, 1-cyclopentyl-N-((2S,3R)-4-(6-ethyl-2,2-spirocyclopentylchroman-4-ylamino)-3-hydrodroxy-1-phenylbutan-2-yl)-6-oxo-5-(pyrazin-2-yl)-1,6-dihydropyridine-3-carboxamide] | ≤ 5 |
| O=C(N[C@@H](Cc1ccccc1)[C@H](O)CN[C@H]1CC2(CCC2)Nc2ccc(Br)cc21)c1cc(-c2ccccn2)c(=O)n(C2CCCC2)c1 [Example 471, N-((1S,2R)-3-(((4′S)-6′-bromo-3′,4′-dihydro-1′H-spiro[cyclobutane-1,2′-quinolin]-4′-yl)amino)-2-hydroxy-1-(phenylmethyl)propyl)-1′-cyclopentyl-2′-oxo-1′,2′-dihydro-2,3′-bipyridine-5′-carboxamide] | ≤ 5 |
| O=C(N[C@@H](Cc1ccccc1)[C@H](O)CN[C@H]1CC2(CCCC2)Oc2ccc(OC(F)(F)F)cc21)c1cc(N2CCCC2=O)c(=O)n(C2CCCC2)c1 [Example 134, 1-cyclopentyl-N-((2S,3R)-4-((S)-2,2-spirocyclopentyl-6-(trifluoromethoxy)chroman-4-ylamino)-3-hydroxy-1-phenylbutan-2-yl)-6-oxo-5-(2-oxopyrrolidin-1-yl)-1,6-dihydropyridine-3-carboxamide] | ≤ 5 |
| CCc1ccc2c(c1)[C@@H](NC[C@@H](O)[C@H](Cc1ccccc1)NC(=O)c1nn(-c3ccccc3)c(=O)cc1Cl)CC1(CCCC1)O2 [Example 142, 4-chloro-N-((2S,3R)-4-((S)-6-ethyl-2,2-spirocyclopentylchroman-4-ylamino)-3-hydroxy-1-phenylbutan-2-yl)-6-oxo-1-phenyl-1,6-dihydropyridazine-3-carboxamide] | ≤ 5 |
| CCc1ccc2c(c1)[C@@H](NC[C@@H](O)[C@H](Cc1ccccc1)NC(=O)c1cc(N3CCCC3=O)c(=O)n(C3CCCC3)c1)CC1(CCC1)O2 [Example 116] | ≤ 5 |
| CCc1ccc2c(c1)C(NC[C@@H](O)[C@H](Cc1ccccc1)NC(=O)c1cc(-c3ccccc3)c(=O)n(C3CCCC3)c1)CC1(CCCC1)O2 (some centres unmarked) [Example 8] | ≤ 5 |
| COCCNc1ccc2c(c1)[C@@H](NC[C@@H](O)[C@H](Cc1ccccc1)NC(=O)c1cc(-c3ccccn3)c(=O)n(C3CCCC3)c1)CC(C)(C)C2=O [Example 505, 1′-cyclopentyl-N-((1S,2R)-3-(((1S)-3,3-dimethyl-7-((2-(methyloxy)ethyl)amino)-4-oxo-1,2,3,4-tetrahydro-1-naphthalenyl)amino)-2-hydroxy-1-(phenylmethyl)propyl)-2′-oxo-1′,2′-dihydro-2,3′-bipyridine-5′-carboxamide] | ≤ 5 |
| CC1(C)C[C@@H](NC[C@@H](O)[C@H](Cc2ccccc2)NC(=O)c2cc(-c3ccccn3)c(=O)n(C3CCCC3)c2)c2cc(Br)ccc2N1 [Example 481, N-((1S,2R)-3-(((4R)-6-bromo-2,2-dimethyl-1,2,3,4-tetrahydro-4-quinolinyl)amino)-2-hydroxy-1-(phenylmethyl)propyl)-1′-cyclopentyl-2′-oxo-1′,2′-dihydro-2,3′-bipyridine-5′-carboxamide] | ≤ 5 |
| CCc1ccc2c(c1)C(NC[C@@H](O)[C@H](Cc1ccccc1)NC(=O)c1cc(C#N)c(=O)n(C3CCCC3)c1)CC1(CCCC1)O2 (some centres unmarked) [Example 1] | ≤ 5 |
| CCc1cc2c(s1)CC1(CCC1)C[C@@H]2NC[C@@H](O)[C@H](Cc1ccccc1)NC(=O)c1cc(-c2ccccn2)c(=O)n(C(C)C)c1 [Example 508, N-((1S,2R)-3-(((4S)-2-ethyl-4,7-dihydro-5H-spiro[1-benzothiophene-6,1′-cyclobutan]-4-yl)amino)-2-hydroxy-1-(phenylmethyl)propyl)-1′-(1-methylethyl)-2′-oxo-1′,2′-dihydro-2,3′-bipyridine-5′-carboxamide] | ≤ 5 |
| Cc1ccc2c(c1)[C@@H](NC[C@@H](O)[C@H](Cc1ccccc1)NC(=O)c1cc(N3CCCC3=O)c(=O)n(C3CCCC3)c1)CC1(CCCC1)O2 [Example 131, 1-cyclopentyl-N-((2S,3R)-4-((S)-2,2-spirocyclopentyl-6-methylchroman-4-ylamino)-3-hydroxy-1-phenylbutan-2-yl)-6-oxo-5-(2-oxopyrrolidin-1-yl)-1,6-dihydropyridine-3-carboxamide] | ≤ 5 |
| CCc1ccc2c(c1)C(NC[C@@H](O)[C@H](Cc1ccccc1)NC(=O)c1cc(-c3ccccc3F)c(=O)n(C3CCCC3)c1)CC1(CCCC1)O2 (some centres unmarked) [Example 3] | ≤ 5 |
| CCc1ccc2c(c1)[C@@H](NC[C@@H](O)[C@H](Cc1ccccc1)NC(=O)c1ccc(=O)n(CC(C)C)c1)CC1(CCC1)O2 [Example 118] | ≤ 5 |
| CCc1ccc2c(c1)[C@@H](NC[C@@H](O)[C@H](Cc1ccccc1)NC(=O)c1ccc(=O)n(-c3ccccc3)c1)CC1(CCC1)O2 [Example 120] | ≤ 5 |

Further lines, results first:

| IC50 [µM] | Structure (SMILES) |
| --- | --- |
| ≤ 5 | CC1(C)Cc2ccc(O[C@H]3CCOC3)cc2[C@@H](NC[C@@H](O)[C@H](Cc2ccccc2)NC(=O)[C@H]2CCC(=O)O2)C1 [Example 516, (2R)-N-((1S,2R)-3-(((1S)-3,3-dimethyl-7-((3S)-tetrahydro-3-furanyloxy)-1,2,3,4-tetrahydro-1-naphthalenyl)amino)-2-hydroxy-1-(phenyl-methyl)propyl)-5-oxotetrahydro-2-furancarboxamide] |
| ≤ 5 | Cc1cccc(C(=O)N2CCO[C@@H](C(=O)N[C@@H](Cc3ccccc3)[C@H](O)CN[C@H]3CC(C)(C)Cc4ncc(C)cc43)C2)c1 [Example 499, (2R)-N-((1S,2R)-2-hydroxy-1-(phenylmethyl)-3-(((5S)-3,7,7-trimethyl-5,6,7,8-tetrahydro-5-quinolinyl)amino)propyl)-4-((3-methylphenyl)carbonyl)-2-morpholinecarboxamide] |
| ≤ 5 | CCc1ccc2c(c1)[C@@H](NC[C@@H](O)[C@H](Cc1ccccc1)NC(=O)[C@@H]1CN(C(=O)N3CCCCC3)CCO1)CC(C)(C)O2 [Example 485, (2S)-N-((1S,2R)-3-(((4S)-6-ethyl-2,2-dimethyl-3,4-dihydro-2H-chromen-4-yl)amino)-2-hydroxy-1-(phenylmethyl)propyl)-4-(1-piperidinylcarbonyl)-2-morpholinecarboxamide] |
| ≤ 5 | Cc1cccc(C(=O)N2CCO[C@H](C(=O)N[C@@H](Cc3cccc(C#N)c3)[C@H](O)CN[C@H]3CC4(CCC4)Cc4ncc(C)cc43)C2)c1 [Example 490, (2S)-N-((1S,2R)-1-((3-cyanophenyl)methyl)-2-hydroxy-3-(((5′S)-3′-methyl-5′,8′-dihydro-6′H-spiro[cyclobutane-1,7′-quinolin]-5′-yl)amino)propyl)-4-((3-methylphenyl)carbonyl)-2-morpholinecarboxamide] |
| ≤ 5 | Cc1cnc2c(c1)[C@@H](NC[C@@H](O)[C@H](Cc1ccccc1)NC(=O)C1CCOCC1)CC(C)(C)C2 [Example 504, N-((1S,2R)-2-hydroxy-1-(phenylmethyl)-3-(((5S)-3,7,7-trimethyl-5,6,7,8-tetrahydro-5-quinolinyl)amino)propyl)tetrahydro-2H-pyran-4-carboxamide] |
| ≤ 5 | CCc1ccc2c(c1)[C@@H](NC[C@@H](O)[C@H](Cc1ccccc1)NC(=O)[C@H]1CN(C)c3ccccc3O1)CC1(CCCC1)O2 [Example 47, (R)—N-((2S,3R)-4-((S)-6-ethyl-2,2-spirocyclopentylchroman-4-ylamino)-3-hydroxy-1-phenylbutan-2-yl)-4-methyl-3,4-dihydro-2H-benzo[b][1,4]oxazine-2-carboxamide] |
| ≤ 5 | CCc1ccc2c(c1)[C@@H](NC[C@@H](O)[C@H](Cc1ccccc1)NC(=O)c1ccc(=O)n(C3CCCC3)c1)CC1(CCCC1C)O2 (stereo partly drawn) [Example 141, 1-cyclopentyl-N-((2S,3R)-4-((S)-6-ethyl-2,2-(-methyl)-spirocyclopentylchroman-4-ylamino)-3-hydroxy-1-phenylbutan-2-yl)-6-oxo-1,6-dihydropyridine-3-carboxamide] |
| ≤ 5 | O=C1CC[C@@H](C(=O)N[C@@H](Cc2ccccc2)[C@H](O)CN[C@H]2CC3(CCC3)Oc3ccc(N4CCOCC4)cc32)O1 [Example 528, (2S)-N-((1S,2R)-2-hydroxy-3-(((4S)-6-(4-morpholinyl)-3,4-dihydrospiro[chromene-2,1′-cyclobutan]-4-yl)amino)-1-(phenylmethyl)propyl)-5-oxotetrahydro-2-furancarboxamide] |
| ≤ 5 | Cc1cccc(C(=O)N2CCO[C@@H](C(=O)N[C@@H](Cc3cccc(C#N)c3)[C@H](O)CN[C@H]3CC4(CCC4)Cc4ncc(C)cc43)C2)c1 [Example 491, (2R)-N-((1S,2R)-1-((3-cyanophenyl)methyl)-2-hydroxy-3-(((5′S)-3′-methyl-5′,8′-dihydro-6′H-spiro[cyclobutane-1,7′-quinolin]-5′-yl)amino)propyl)-4-((3-methylphenyl)carbonyl)-2-morpholinecarboxamide] |
